Tested on: Tetranychus urticae
Experiment: Tetranychus urticae control test
Format: in vivo
Conditions: diluted emulsifiable concentrate 500 ppm sprayed on bean seedlings; female adults; eight days after the treatment; 25° C.
Method: Test Example-4: Tetranychus urticae Control Test
Ten female adults of Tetranychus urticae were released on each of bean seedlings grown in a plastic cup. One day after the release, the bean seedlings were placed on a turntable, and 30 mL of a diluted emulsifiable concentrate (500 ppm) prepared according to Formulation Example 3 was uniformly sprayed thereon by means of a spray gun. After the treatment, the seedlings were placed in a constant temperature chamber at 25° C. (with lighting for 16 hours). Eight days after the treatment, the number of surviving parasitic insects was investigated, and the preventive value (%) was calculated according to the following calculating formula (b). Test was conducted in duplicate. Preventive value (%)={1−(number of parasitic insects on investigation day in treatment plot/number of parasitic insects on investigation day in non-treatment plot)}×100 Formula (b): […]

## CCS(=O)(=O)c1cc(C(F)(F)F)cnc1-n1cc(-c2ccc(C(F)(F)F)cc2)nn1 [1-834]
  preventive value: ≥ 80%
